Literature values, collected in patent US12090135B2, “Neutral pH compositions of docetaxel and human serum albumin” (Zhuhai Beihai Biotech Co., Ltd., priority 2016, dated 2024).
Entries after “also recorded” stand apart in the source; their conditions may differ.

Experiments:
[1] = test system: plasma proteins
[2] = test system: microtubule depolymerization

- in vitro binding to plasma proteins ([1]; in three cancer patients): approximately 97%
- protein bound ([1]; in vitro studies, mainly to al-acid glycoprotein, albumin, and lipoproteins): about 94%
Compound: CC(=O)O[C@@]12CO[C@@H]1C[C@H](O)[C@@]1(C)C(=O)[C@H](O)C3=C(C)[C@@H](OC(=O)[C@H](O)[C@@H](NC(=O)OC(C)(C)C)c4ccccc4)C[C@@](O)([C@@H](OC(=O)c4ccccc4)[C@H]21)C3(C)C [Docetaxel]
- Water solubility: practically insoluble in water; also recorded: very poor water solubility
- Potency in inhibiting microtubule depolymerization relative to paclitaxel [2]: about twice as potent as paclitaxel
